Patent US11225480B2, “Malic enzyme inhibitors” (SUN PHARMA ADVANCED RESEARCH COMPANY LTD, priority 2019, dated 2022)

Key:
Type in all cases: biochemical
human ME3 enzyme = molecular target: T1, human ME3 enzyme (Homo sapiens, UniProt Q16798); assay: ME3 inhibition assay (diaphorase/resazurin coupled fluorescence); settings: 10 μM compound concentration; read-out: Malic Enzyme 3 % inhibition (10 μM)
T1 sequence (Q16798 1-604): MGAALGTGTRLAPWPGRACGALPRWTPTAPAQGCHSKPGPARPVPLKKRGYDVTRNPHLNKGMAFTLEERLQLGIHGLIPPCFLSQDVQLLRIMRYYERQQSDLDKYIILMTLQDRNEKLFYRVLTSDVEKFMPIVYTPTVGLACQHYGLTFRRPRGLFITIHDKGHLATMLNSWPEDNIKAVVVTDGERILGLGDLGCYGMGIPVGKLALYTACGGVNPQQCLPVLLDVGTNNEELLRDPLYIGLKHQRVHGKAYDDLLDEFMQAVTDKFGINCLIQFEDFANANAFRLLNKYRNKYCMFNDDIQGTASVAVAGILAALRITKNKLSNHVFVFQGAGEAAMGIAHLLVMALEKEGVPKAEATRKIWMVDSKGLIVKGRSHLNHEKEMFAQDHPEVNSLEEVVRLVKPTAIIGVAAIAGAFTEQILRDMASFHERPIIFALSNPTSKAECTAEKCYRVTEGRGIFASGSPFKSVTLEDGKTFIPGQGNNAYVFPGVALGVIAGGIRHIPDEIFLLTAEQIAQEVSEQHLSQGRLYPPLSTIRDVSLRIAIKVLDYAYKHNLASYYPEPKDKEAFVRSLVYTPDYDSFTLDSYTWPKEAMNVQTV
In short: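 Coupled read-out: NADPH made by human ME3 (20 nM stock) drives diaphorase conversion of resazurin (50 μM) to resorufin; buffer 50 mM Tris-HCl pH 7.5, 10 mM MnCl2, 3 mM L-malate.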

human ME2 enzyme = human ME2 enzyme (Homo sapiens, UniProt P23368); assay: ME2 inhibition assay (diaphorase/resazurin coupled fluorescence); settings: 10 μM compound concentration; read-out: Malic Enzyme 2 % inhibition (10 μM)
Sequence of human ME2 enzyme (P23368 19-584): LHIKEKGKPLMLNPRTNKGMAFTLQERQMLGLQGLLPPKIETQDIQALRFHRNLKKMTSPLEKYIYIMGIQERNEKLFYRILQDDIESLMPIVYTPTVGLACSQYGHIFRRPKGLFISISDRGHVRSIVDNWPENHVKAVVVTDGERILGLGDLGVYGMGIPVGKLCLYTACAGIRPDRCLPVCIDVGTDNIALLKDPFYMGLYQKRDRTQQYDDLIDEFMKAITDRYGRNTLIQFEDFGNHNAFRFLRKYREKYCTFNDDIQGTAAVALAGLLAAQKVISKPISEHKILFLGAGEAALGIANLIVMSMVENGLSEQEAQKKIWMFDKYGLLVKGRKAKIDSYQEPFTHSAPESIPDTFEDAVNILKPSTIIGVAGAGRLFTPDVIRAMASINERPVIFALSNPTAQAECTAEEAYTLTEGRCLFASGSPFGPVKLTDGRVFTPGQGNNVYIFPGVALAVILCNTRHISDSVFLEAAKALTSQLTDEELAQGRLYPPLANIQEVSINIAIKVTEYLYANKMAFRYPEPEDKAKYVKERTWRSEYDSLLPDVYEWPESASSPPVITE
In short: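 Human ME2 (10 μL of 60 nM) was preincubated 5 min at room temperature with compound (10 μM) in 50 mM Tris-HCl pH 7.5, 10 mM MnCl2, 7 mM L-malate, 50 μM resazurin and 0.025 mg/ml diaphorase. The reaction was started with 10 μL of 2 mM β-NAD+ and run 2 hours at room temperature. Resorufin fluorescence (ex 540/em 600 nm) was normalized to enzyme-only (100%) and no-enzyme (0%) controls as % activity.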

human ME1 enzyme = molecular target: T2, human ME1 enzyme (Homo sapiens, UniProt P48163); assay: ME1 inhibition assay (diaphorase/resazurin coupled fluorescence); settings: 10 μM compound concentration; read-out: Malic Enzyme 1 % inhibition (10 μM)
T2 sequence (P48163 1-572): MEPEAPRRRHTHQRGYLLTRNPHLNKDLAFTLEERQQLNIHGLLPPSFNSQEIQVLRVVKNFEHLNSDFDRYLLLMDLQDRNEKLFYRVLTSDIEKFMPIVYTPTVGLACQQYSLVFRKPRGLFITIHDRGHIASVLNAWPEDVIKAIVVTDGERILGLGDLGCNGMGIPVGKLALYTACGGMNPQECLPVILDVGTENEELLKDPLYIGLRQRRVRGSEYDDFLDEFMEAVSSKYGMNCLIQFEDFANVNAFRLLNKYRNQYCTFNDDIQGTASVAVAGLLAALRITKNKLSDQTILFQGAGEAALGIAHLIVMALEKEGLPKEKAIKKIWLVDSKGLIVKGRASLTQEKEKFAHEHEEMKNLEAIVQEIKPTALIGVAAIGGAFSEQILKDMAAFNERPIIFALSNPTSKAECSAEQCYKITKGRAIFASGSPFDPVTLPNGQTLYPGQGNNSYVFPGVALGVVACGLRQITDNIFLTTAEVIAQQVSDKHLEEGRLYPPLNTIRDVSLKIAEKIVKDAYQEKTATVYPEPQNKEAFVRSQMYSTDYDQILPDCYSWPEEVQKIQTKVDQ
In short: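 Compounds at 10 μM preincubated 15 min in 50 mM Tris-HCl pH 7.5, 10 mM MnCl2, 2 mM L-malate, 10 μM resazurin, 0.01 mg/ml diaphorase, then human ME1 added for 5 min; reaction started with NADP+ and run 2 h at room temperature. Resorufin fluorescence (ex 540/em 600 nm) normalized to enzyme-only (100%) and no-enzyme (0%) controls.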

Row | Compound | inhibition at 10 µM (human ME3 enzyme) [%] | inhibition at 10 µM (human ME2 enzyme) [%] | inhibition at 10 µM (human ME1 enzyme) [%]
1 | O=C(CC1CC1)N1CCN(c2ccc(O)cn2)CC1 [I.137, 2-Cyclo-propyl-1-[4-(5-hydroxy-2-pyridyl)-piperazin-1-yl]ethanone] | > 90 | > 90 | > 90
2 | N#Cc1ccc(CCC(=O)N2CCN(c3ccc(O)cn3)CC2)cc1 [I.138, 3-(4-Cyano-phenyl)-1-[4-(5-hydroxy-pyridin-2-yl)-piperazin-1-yl]-propan-1-one] | > 90 | > 90 | > 90
3 | O=C(CCc1ccc(C(F)(F)F)cc1)N1CCN(c2ccc(O)cn2)CC1 [I.139, 3-(4-Trifluoro-methylphenyl)-1-[4-(5-hydroxy-pyridin-2-yl)-piperazin-1-yl]-propan-1-one] | > 90 | > 90 | > 90
4 | O=C(CCC1CC1)N1CCN(c2ccc(O)cn2)CC1 [I.140, 3-Cyclo-propyl-1-[4-(5-hydroxy-2-pyridyl)-piperazin-1-yl]propan-1-one] | > 90 | > 90 | > 90
5 | O=C(O)c1ccccc1CCC(=O)N1CCN(c2ccc(O)cn2)CC1 [I.141, 2-{3-[4-(5-Hydroxy-pyridin-2-yl)-piperazin-1-yl]-3-oxo-propyl}-benzoic acid] | > 90 | > 90 | 70 to 89
6 | COC(=O)c1ccccc1CCC(=O)N1CCN(c2ccc(O)cn2)CC1 [I.142, 2-{3-[4-(5-Hydroxy-pyridin-2-yl)-piperazin-1-yl]-3-oxo-propyl}-benzoic acid methyl ester] | > 90 | > 90 | 70 to 89
7 | O=C(CSc1ccccc1Br)N1CCN(c2ccc(O)cn2)CC1 [I.143, 2-(2-Bromo-phenylsulfanyl)-1-[4-(5-hydroxy-pyridin-2-yl)-piperazin-1-yl]-ethanone] | > 90 | > 90 | > 90
8 | O=C(C(O)Cc1ccccc1)N1CCN(c2ccc(O)cn2)CC1 (stereo not drawn) [I.144, 2-Hydroxy-1-[4-(5-hydroxy-pyridin-2-yl)-piperazin-1-yl]-3-phenyl-propan-1-one] | > 90 | > 90 | 50 to 69
9 | Cc1cc(F)ccc1CCC(=O)N1CCN(c2ccc(O)cn2)CC1 [I.145, 3-(4-Fluoro-2-methyl-phenyl)-1-[4-(5-hydroxy-pyridin-2-yl)-piperazin-1-yl]-propan-1-one] | > 90 | > 90 | > 90
10 | Cc1cccc(CCC(=O)N2CCN(c3ccc(O)cn3)CC2)c1C [I.146, 3-(2,3-Dimethyl-phenyl)-1-[4-(5-hydroxy-pyridin-2-yl)-piperazin-1-yl]-propan-1-one] | > 90 | > 90 | > 90
11 | Cc1cccc(C)c1CCC(=O)N1CCN(c2ccc(O)cn2)CC1 [I.147, 3-(2,6-Dimethyl-phenyl)-1-[4-(5-hydroxy-pyridin-2-yl)-piperazin-1-yl]-propan-1-one] | > 90 | > 90 | > 90
12 | O=C(Cc1cc(F)cc(F)c1)N1CCN(c2ccc(O)cc2)CC1 [I.148, 2-(3,5-difluoro-phenyl)-1-[4-(4-hydroxy-phenyl)-piperazin-1-yl]-ethanone] | > 90 | > 90 | > 90
13 | O=C(Cc1ccc(F)cc1F)N1CCN(c2ccc(O)cc2)CC1 [I.149, 2-(2,4-difluoro-phenyl)-1-[4-(4-hydroxy-phenyl)-piperazin-1-yl]-ethanone] | > 90 | > 90 | > 90
14 | O=C(Cc1c[nH]c2ccc(F)cc12)N1CCN(c2ccc(O)cc2)CC1 [I.150, 2-(5-fluoro-1H-indol-3-yl)-1-[4-(4-hydroxy-phenyl)-piperazin-1-yl]-ethanone] | > 90 | > 90 | > 90
15 | O=C(CSc1ccccc1Br)N1CCN(c2ccc(O)cc2)CC1 [I.151, 2-(2-bromo-phenylsulfanyl)-1-[4-(4-hydroxy-phenyl)-piperazin-1-yl]-ethanone] | > 90 | > 90 | > 90
16 | O=C(CCc1ccc(F)cc1F)N1CCN(c2ccc(O)cn2)CC1 [I.152, 3-(2,4-Difluoro-phenyl)-1-[4-(5-hydroxy-pyridin-2-yl)-piperazin-1-yl]-propan-1-one] | > 90 | > 90 | > 90
17 | O=C(CCc1ccc(F)c(F)c1)N1CCN(c2ccc(O)cn2)CC1 [I.153, 3-(3,4-Difluoro-phenyl)-1-[4-(5-hydroxy-pyridin-2-yl)-piperazin-1-yl]-propan-1-one] | > 90 | > 90 | > 90
18 | Cc1cccc(Cl)c1C(=O)N1CCN(c2ccc(O)cc2)CC1 [I.154, (2-Chloro-6-methylphenyl)-[4-(4-hydroxy-phenyl)-piperazin-1-yl]-methanone] | > 90 | > 90 | > 90
19 | O=C(c1c[nH]c2ccc(F)cc12)N1CCN(c2ccc(O)cn2)CC1 [I.155, (5-Fluoro-1H-indol-3-yl)-[4-(5-hydroxy-pyridin-2-yl)-piperazin-1-yl]-methanone] | > 90 | > 90 | > 90
20 | O=C(c1c[nH]c2ccc(F)cc12)N1CCN(c2ccc(O)cc2)CC1 [I.156, (5-Fluoro-1H-indol-3-yl)-[4-(4-hydroxy-phenyl)-piperazin-1-yl]-methanone] | > 90 | > 90 | > 90
21 | O=C(CCc1c(F)cccc1F)N1CCN(c2ccc(O)cn2)CC1 [I.157, 3-(2,6-Difluoro-phenyl)-1-[4-(5-hydroxy-pyridin-2-yl)-piperazin-1-yl]-propan-1-one] | > 90 | > 90 | > 90
22 | O=C(Cc1c[nH]c2cc(F)ccc12)N1CCN(c2ccc(O)cn2)CC1 [I.158, 2-(6-Fluoro-1H-indol-3-yl)-1-[4-(5-hydroxy-pyridin-2-yl)-piperazin-1-yl]-ethanone] | > 90 | > 90 | > 90
23 | O=C(Cc1c[nH]c2ccc(Cl)cc12)N1CCN(c2ccc(O)cn2)CC1 [I.159, 2-(5-Chloro-1H-indol-3-yl)-1-[4-(5-hydroxy-pyridin-2-yl)-piperazin-1-yl]-ethanone] | > 90 | > 90 | > 90
24 | O=C(Cc1c[nH]c2cc(F)c(F)cc12)N1CCN(c2ccc(O)cn2)CC1 [I.160, 2-(5,6-Difluoro-1H-indol-3-yl)-1-[4-(5-hydroxy-pyridin-2-yl)-piperazin-1-yl]-ethanone] | > 90 | > 90 | > 90
25 | CC(C)(CC(=O)N1CCN(c2ccc(O)cn2)CC1)c1ccc(F)cc1 [I.161, 3-(4-Fluoro-phenyl)-1-[4-(5-hydroxy-pyridin-2-yl)-piperazin-1-yl]-3-methyl-butan-1-one] | > 90 | > 90 | > 90
